Experimental data as given in PMC9363158 (HIV medicine, 2021).
“And” between values parts separate entries of the source, which are not always exact repeats. Equal entries are not always repeated. Where two headings read alike, the source gives them in different places.

Columns and labels:
CYP2C9 = settings: read-out: mean observed Km of progesterone metabolism by CYP2C9; liver microsome studies; cited from earlier work
CYP3A4 [1] = settings: read-out: mean observed Km of progesterone metabolism by CYP3A4; liver microsome studies; cited from earlier work
CYP2C19 = settings: read-out: mean observed Km of progesterone metabolism by CYP2C19; liver microsome studies; cited from earlier work
CYP2B6 [2] = experiment: CYP gene expression in human hepatocytes; type: in vitro ADME
CYP3A4 [3] = tested on: CYP3A4
CYP1A2 = experiment: CYP gene expression in human hepatocytes; type: in vitro ADME
[4] = dolutegravir protein binding in Williams' Medium E by rapid equilibrium dialysis; type: in vitro ADME
CYP3A4 [5] = experiment: in vitro; settings: human, fold induction of CYP3A4 expression
CYP2B6 [6] = settings: total dolutegravir up to and including 40 μM, 48 h; cited from earlier work
CYP3A4 [7] = settings: total dolutegravir up to and including 40 μM, 48 h; cited from earlier work
[8] = in vivo; cited from earlier work
[9] = clinical observation with rifampin; cited from earlier work
[10] = Jadelle subdermal implants, cited from earlier work
rhCYP3A4 = rhCYP3A4 (Homo sapiens, UniProt P08684); experiment: levonorgestrel clearance by recombinant human CYP; type: in vitro ADME
[11] = administered orally; cited from earlier work
rhCYP2B6 = target: T1, rhCYP2B6 (Homo sapiens, UniProt P20813); experiment: levonorgestrel clearance by recombinant human CYP; type: in vitro ADME
T1 sequence (P20813 1-491): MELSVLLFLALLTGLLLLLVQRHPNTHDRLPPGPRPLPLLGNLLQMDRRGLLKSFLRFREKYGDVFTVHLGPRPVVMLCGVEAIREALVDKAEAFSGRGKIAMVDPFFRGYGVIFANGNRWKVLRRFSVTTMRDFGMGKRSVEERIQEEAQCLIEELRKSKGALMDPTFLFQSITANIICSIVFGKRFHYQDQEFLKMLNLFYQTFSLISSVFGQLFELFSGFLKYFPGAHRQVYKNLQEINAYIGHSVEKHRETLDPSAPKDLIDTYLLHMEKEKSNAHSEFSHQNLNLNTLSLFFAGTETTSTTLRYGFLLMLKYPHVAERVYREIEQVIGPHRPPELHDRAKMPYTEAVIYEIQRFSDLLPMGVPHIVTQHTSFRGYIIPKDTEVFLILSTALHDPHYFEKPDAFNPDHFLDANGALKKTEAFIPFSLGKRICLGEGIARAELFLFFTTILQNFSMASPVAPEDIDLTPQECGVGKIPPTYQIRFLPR

rhCYP2C9 = rhCYP2C9 (Homo sapiens, UniProt P11712); experiment: levonorgestrel clearance by recombinant human CYP; type: in vitro ADME
rhCYP1A2 = target: T2, rhCYP1A2 (Homo sapiens, UniProt P05177); experiment: levonorgestrel clearance by recombinant human CYP; type: in vitro ADME
T2 sequence (P05177 1-516): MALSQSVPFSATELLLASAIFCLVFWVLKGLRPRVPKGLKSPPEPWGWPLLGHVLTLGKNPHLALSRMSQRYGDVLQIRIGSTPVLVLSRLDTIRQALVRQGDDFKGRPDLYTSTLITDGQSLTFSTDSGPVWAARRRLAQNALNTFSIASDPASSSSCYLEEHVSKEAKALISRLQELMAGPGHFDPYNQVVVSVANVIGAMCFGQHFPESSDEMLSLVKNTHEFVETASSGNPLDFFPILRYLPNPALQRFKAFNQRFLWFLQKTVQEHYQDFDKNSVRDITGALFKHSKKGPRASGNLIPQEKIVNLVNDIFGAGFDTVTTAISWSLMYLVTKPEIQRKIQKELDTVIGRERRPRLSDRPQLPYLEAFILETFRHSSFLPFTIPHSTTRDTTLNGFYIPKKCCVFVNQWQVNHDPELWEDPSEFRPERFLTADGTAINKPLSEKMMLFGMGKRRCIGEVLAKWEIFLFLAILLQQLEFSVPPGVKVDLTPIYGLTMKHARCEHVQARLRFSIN

[12] = levonorgestrel CLint.app. by cryopreserved primary human hepatocytes; type: in vitro ADME; settings: cryopreserved primary human hepatocytes (plated)
[13] = cited from earlier work
hepatic CYPs = experiment: total apparent and systemic plasma clearance scaled from rhCYP data; type: in vitro ADME, human
rhCYP3A5 = rhCYP3A5 (Homo sapiens, UniProt P20815); experiment: levonorgestrel clearance by recombinant human CYP; type: in vitro ADME
rhCYP2C19 = rhCYP2C19 (Homo sapiens, UniProt P33261); experiment: levonorgestrel clearance by recombinant human CYP; type: in vitro ADME
[14] = human, cryopreserved primary human hepatocytes
[15] = levonorgestrel 5 μM, 60 min, vs ketoconazole inhibitor control
[16] = scaled from rhCYP data to adult female liver (Eq. 2)

Chain of rhCYP2C19 (P33261 whole entry): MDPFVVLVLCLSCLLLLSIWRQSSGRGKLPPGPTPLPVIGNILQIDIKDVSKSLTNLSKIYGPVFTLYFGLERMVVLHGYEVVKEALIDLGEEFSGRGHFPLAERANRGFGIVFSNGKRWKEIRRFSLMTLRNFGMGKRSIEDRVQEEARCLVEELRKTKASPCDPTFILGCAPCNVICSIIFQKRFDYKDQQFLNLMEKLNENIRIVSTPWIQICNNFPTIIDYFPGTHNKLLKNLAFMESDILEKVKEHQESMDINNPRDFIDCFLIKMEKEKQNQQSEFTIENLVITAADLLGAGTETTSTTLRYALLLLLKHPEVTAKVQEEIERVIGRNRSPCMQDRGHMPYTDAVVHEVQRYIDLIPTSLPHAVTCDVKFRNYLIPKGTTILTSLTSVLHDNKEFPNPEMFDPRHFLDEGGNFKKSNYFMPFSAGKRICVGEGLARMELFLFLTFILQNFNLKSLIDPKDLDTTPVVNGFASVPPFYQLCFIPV
Chain of rhCYP3A4 (P08684 whole entry): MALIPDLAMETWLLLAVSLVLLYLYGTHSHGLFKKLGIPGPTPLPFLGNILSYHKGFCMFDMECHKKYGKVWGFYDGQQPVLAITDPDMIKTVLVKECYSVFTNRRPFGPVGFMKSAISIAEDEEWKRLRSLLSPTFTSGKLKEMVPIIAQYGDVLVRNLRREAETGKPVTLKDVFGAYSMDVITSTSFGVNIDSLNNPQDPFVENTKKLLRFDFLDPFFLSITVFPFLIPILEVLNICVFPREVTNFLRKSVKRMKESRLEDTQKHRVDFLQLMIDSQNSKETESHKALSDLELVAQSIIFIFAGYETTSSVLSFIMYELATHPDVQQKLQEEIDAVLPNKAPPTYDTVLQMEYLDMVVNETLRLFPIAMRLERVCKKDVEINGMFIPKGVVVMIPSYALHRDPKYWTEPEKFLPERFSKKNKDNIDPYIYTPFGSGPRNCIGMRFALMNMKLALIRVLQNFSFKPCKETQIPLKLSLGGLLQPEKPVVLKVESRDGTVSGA
Chain of rhCYP3A5 (P20815 whole entry): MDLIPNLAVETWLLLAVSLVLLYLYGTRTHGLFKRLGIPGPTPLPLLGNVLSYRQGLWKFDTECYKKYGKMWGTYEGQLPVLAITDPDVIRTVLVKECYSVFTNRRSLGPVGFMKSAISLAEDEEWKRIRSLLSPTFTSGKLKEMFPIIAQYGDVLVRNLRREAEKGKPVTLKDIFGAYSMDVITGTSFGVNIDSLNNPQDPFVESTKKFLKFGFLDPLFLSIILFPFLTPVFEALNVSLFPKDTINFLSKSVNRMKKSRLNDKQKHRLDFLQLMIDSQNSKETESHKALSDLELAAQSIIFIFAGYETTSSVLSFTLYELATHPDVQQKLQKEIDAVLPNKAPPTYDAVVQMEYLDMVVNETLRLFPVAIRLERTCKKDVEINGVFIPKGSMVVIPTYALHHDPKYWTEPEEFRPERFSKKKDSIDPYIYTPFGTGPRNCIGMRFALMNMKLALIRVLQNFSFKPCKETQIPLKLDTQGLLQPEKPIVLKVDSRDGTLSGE
Chain of rhCYP2C9 (P11712 whole entry): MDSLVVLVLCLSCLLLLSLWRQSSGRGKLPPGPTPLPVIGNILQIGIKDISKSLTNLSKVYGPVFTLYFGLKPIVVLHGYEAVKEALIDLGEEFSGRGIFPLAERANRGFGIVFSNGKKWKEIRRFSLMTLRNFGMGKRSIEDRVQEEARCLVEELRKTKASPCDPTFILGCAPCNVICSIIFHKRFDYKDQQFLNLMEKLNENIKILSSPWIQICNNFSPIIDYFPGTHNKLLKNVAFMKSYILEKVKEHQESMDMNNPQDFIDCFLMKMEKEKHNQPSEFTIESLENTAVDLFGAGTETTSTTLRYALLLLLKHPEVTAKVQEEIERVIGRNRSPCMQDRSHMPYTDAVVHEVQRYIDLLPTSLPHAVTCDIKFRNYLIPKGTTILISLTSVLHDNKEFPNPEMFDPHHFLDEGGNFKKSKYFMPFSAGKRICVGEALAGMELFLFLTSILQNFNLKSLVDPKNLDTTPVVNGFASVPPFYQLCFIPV

CC(=O)[C@H]1CC[C@H]2[C@@H]3CCC4=CC(=O)CC[C@]4(C)[C@H]3CC[C@]12C [progesterone]
Km (CYP2C9): 46 µM
Km (CYP3A4 [1]): 80 µM
Km (CYP2C19): 37 µM

CCC1(c2ccccc2)C(=O)NC(=O)NC1=O [phenobarbital]
fold induction at 72 h, 1 mM (CYP2B6 [2]; [14]): 2.6 ± 1.1
fold increase in CYP3A4 expression (CYP3A4 [3]; human, hepatocytes): 4.8 ± 0.7 fold
fold induction at 72 h, 1 mM (CYP1A2; [14]): 2.7 ± 0.6

C[C@@H]1CCO[C@H]2Cn3cc(C(=O)NCc4ccc(F)cc4F)c(=O)c(O)c3C(=O)N12 [dolutegravir]
fraction unbound at 4 h, 5 μM [4]: 0.43 ± 0.09
fold induction (CYP3A4 [5]): 2.3 ± 0.4
effect on expression of CYP2B6 (CYP2B6 [2]; dolutegravir at concentrations spanning unbound range reported in human plasma (24.6–57.2 nM), 72 h): no effect
fold induction at 72 h, 3.33 μM (CYP2B6 [2]; [14]): 2.2 ± 0.3
fold induction at 72 h, 10 μM (CYP2B6 [2]; [14]): 2.3 ± 0.7
effect on expression of CYP2B6 (CYP2B6 [6]): expression of neither CYP2B6 nor CYP3A4 was affected
effect on expression of CYP3A4 (CYP3A4 [3]): no effect
effect on expression of CYP3A4 (CYP3A4 [7]): expression of neither CYP2B6 nor CYP3A4 was affected
unbound concentration range in human plasma [8]: 24.6 to 57.2 nM
induction of CYP1A2 expression (≥ two-fold above vehicle control) (CYP1A2; dolutegravir 0.00033–10 μM (unbound 0.142–4310 nM), 72 h): did not induce the expression of CYP1A2

CO[C@H]1/C=C/O[C@@]2(C)Oc3c(C)c(O)c4c(O)c(c(/C=N/N5CCN(C)CC5)c(O)c4c3C2=O)NC(=O)/C(C)=C\C=C\[C@H](C)[C@H](O)[C@@H](C)[C@@H](O)[C@@H](C)[C@H](OC(C)=O)[C@@H]1C [rifampin]
fold induction at 72 h, 10 μM (CYP2B6 [2]; [14]): 2 ± 0.5
decrease of levonorgestrel exposure [9]: 58%

C#C[C@]1(O)CC[C@H]2[C@@H]3CCC4=CC(=O)CC[C@@H]4[C@H]3CC[C@@]21CC [levonorgestrel]
plasma concentration of levonorgestrel ([10]; 1 month after insertion): 1.39 nM and 435 pg/mL
plasma concentration of levonorgestrel ([10]; 3 years after insertion): 0.90 nM and 280 pg/mL
levonorgestrel CLint.app. mediated by rhCYP3A4 (rhCYP3A4; [15]): 0.182 ± 0.036 µL/min/pmol
total intrinsic clearance by a single CYP in the liver as a whole (TCLH), CYP3A4 (rhCYP3A4; [16]): 52.5 ± 10.4 L/h
oral bioavailability [11]: high bioavailability
levonorgestrel CLint.app. rhCYP2B6 (rhCYP2B6; levonorgestrel 5 μM, 60 min, vs sertraline inhibitor control): 0.052 ± 0.004 µL/min/pmol
TCLH, CYP2B6 (rhCYP2B6; [16]): 2.6 ± 0.2 L/h
levonorgestrel CLint.app. rhCYP2C9 (rhCYP2C9; levonorgestrel 5 μM, 60 min, vs sulfaphenazole inhibitor control): 0.062 ± 0.010 µL/min/pmol
TCLH, CYP2C9 (rhCYP2C9; [16]): 11.6 ± 1.9 L/h
levonorgestrel CLint.app. rhCYP1A2 (rhCYP1A2; levonorgestrel 5 μM, 60 min, vs α-naphthoflavone inhibitor control): 0.028 ± 0.012 µL/min/pmol
TCLH, CYP1A2 (rhCYP1A2; [16]): 3.4 ± 1.5 L/h
hepatocyte CLint at 1 nM [12]: 22.4 ± 5 µL/min/1e6 cells
bound to human plasma [13]: 97%
fraction unbound in plasma (fu) ([13]; set from 97% binding): 3%
total systemic plasma clearance (hepatic CYPs; from CLapp, fu 3% (Eq. 4)): 2.38 ± 0.46 L/h
total apparent clearance (CLapp) by the hepatic CYPs measured (hepatic CYPs; sum of TCLH of six CYPs (Eq. 3)): 80.97 ± 15.53 L/h
levonorgestrel CLint.app. rhCYP3A5 (rhCYP3A5; [15]): 0.178 ± 0.027 µL/min/pmol
TCLH, CYP3A5 (rhCYP3A5; [16]): 9.4 ± 1.4 L/h
levonorgestrel CLint.app. rhCYP2C19 (rhCYP2C19; levonorgestrel 5 μM, 60 min, vs (+)-N-3-benzylnirvanol inhibitor control): 0.046 ± 0.005 µL/min/pmol
TCLH, CYP2C19 (rhCYP2C19; [16]): 1.6 ± 0.2 L/h
